Target: T1, BCL6 (Homo sapiens, UniProt P41182)
T1 construct: endogenous in cells; host or cells: T47D breast cancer epithelial cells
Assay: Immunofluorescence protocol for high content imaging of BCL6 (degradation) in T47D cells, 3 days compound treatment
Format: cell-based
Conditions: T47D cells, 3 days compound treatment; for DC50: read-out: Mean DC50 (nM)* category; for Dmax: read-out: Mean Dmax (%)** category
Outline: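 T47D, RPMI1640/10% FBS; cpd 11-pt 3-fold, top 0.1 or 1 μM final; 3 d, 37° C. Fix 4% PFA, perm 0.1% Triton, block 3% BSA; anti-BCL6 1:300 o/n 4° C; Alexa-488 2°, CellMask-647, Hoechst. Imaged 10×, 4 fields/well.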

Row | SMILES | DC50 | Dmax
1 | CNC(=O)COc1cc2cc(Nc3nc(N4CCN(CC5CCN(c6c(F)ccc7c6C(=O)N(C6CCC(=O)NC6=O)C7=O)CC5)CC4)ncc3Cl)ccc2n(C)c1=O (stereo not shown) [Compound 35, 2-{[6-({5-chloro-2-[4-({1-[2-(2,6-dioxopiperidin-3-yl)-5-fluoro-1,3-dioxo-2,3-dihydro-1H-isoindol-4-yl]piperidin-4-yl}methyl)piperazin-1-yl]pyrimidin-4-yl}amino)-1-methyl-2-oxo-1,2-dihydroquinolin-3-yl]oxy}-N-methylacetamide] | < 10 nM | 50 to 70%
2 | CNC(=O)COc1cc2cc(Nc3nc(N4CCC5(CC4)CN(C(C)(C)C4CCN(c6cccc7c6CN(C6CCC(=O)NC6=O)C7=O)CC4)C5)ncc3Cl)ccc2n(C(C)C)c1=O (stereo not shown) [Compound 36, 2-{[6-({5-chloro-2-[2-(2-{1-[2-(2,6-dioxopiperidin-3-yl)-1-oxo-2,3-dihydro-1H-isoindol-4-yl]piperidin-4-yl}propan-2-yl)-2,7-diazaspiro [3.5]nonan-7-yl]pyrimidin-4-yl}amino)-2-oxo-1-(propan-2-yl)-1,2-dihydroquinolin-3-yl]oxy}-N-methylacetamide] | < 10 nM | ≥ 70%
3 | CNC(=O)COc1cc2cc(Nc3nc(N4CCC(CN5CCC6(CC5)CN(c5ccc7c(c5)C(=O)N(C5CCC(=O)NC5=O)C7=O)C6)CC4)ncc3Cl)ccc2n(CCOC)c1=O (stereo not shown) [Compound 37, 2-{[6-({5-chloro-2-[4-({2-[2-(2,6-dioxopiperidin-3-yl)-1,3-dioxo-2,3-dihydro-1H-isoindol-5-yl]-2,7-diazaspiro[3.5]nonan-7-yl}methyl)piperidin-1-yl]pyrimidin-4-yl}amino)-1-(2-methoxyethyl)-2-oxo-1,2-dihydroquinolin-3-yl]oxy}-N-methylacetamide] | < 10 nM | 50 to 70%
4 | CNC(=O)COc1cc2cc(Nc3nc(N4CCC(CN5CCC6(CN(c7ccc8c(c7)C(=O)N(C7CCC(=O)NC7=O)C8=O)C6)C(F)(F)C5)CC4)ncc3Cl)ccc2n(C(C)C)c1=O (stereo not shown) [Compound 38, 2-{[6-({5-chloro-2-[4-({2-[2-(2,6-dioxopiperidin-3-yl)-1,3-dioxo-2,3-dihydro-1H-isoindol-5-yl]-5,5-difluoro-2,7-diazaspiro[3.5]nonan-7-yl}methyl)piperidin-1-yl]pyrimidin-4-yl}amino)-2-oxo-1-(propan-2-yl)-1,2-dihydroquinolin-3-yl]oxy}-N-methylacetamide] | < 10 nM | 50 to 70%
5 | CNC(=O)COc1cc2cc(Nc3nc(N4CCC(CN5CCC6(CC(=O)N(c7ccc8c(c7)CN(C7CCC(=O)NC7=O)C8=O)C6)C5)CC4)ncc3Cl)ccc2n(C(C)C)c1=O (stereo not shown) [Compound 39, 2-{[6-({5-chloro-2-[4-({7-[2-(2,6-dioxopiperidin-3-yl)-1-oxo-2,3-dihydro-1H-isoindol-5-yl]-8-oxo-2,7-diazaspiro[4.4]nonan-2-yl}methyl)piperidin-1-yl]pyrimidin-4-yl}amino)-2-oxo-1-(propan-2-yl)-1,2-dihydroquinolin-3-yl]oxy}-N-methylacetamide] | < 10 nM | 50 to 70%
6 | CNC(=O)COc1cc2cc(Nc3nc(N4CCN(C[C@H]5C[C@@H](N6CCC(c7ccc8c(c7)C(=O)N(C7CCC(=O)NC7=O)C8=O)CC6)C5)CC4)ncc3Cl)ccc2n(C(C)C)c1=O (stereo partly shown) [Compound 40, 2-[(6-{[5-chloro-2-(4-{[(1s,3s)-3-{4-[2-(2,6-dioxopiperidin-3-yl)-1,3-dioxo-2,3-dihydro-1H-isoindol-5-yl]piperidin-1-yl}cyclobutyl]methyl}piperazin-1-yl)pyrimidin-4-yl]amino}-2-oxo-1-(propan-2-yl)-1,2-dihydroquinolin-3-yl)oxy]-N-methylacetamide] | 10 to 50 nM | 50 to 70%
7 | CNC(=O)COc1cc2cc(Nc3nc(N4CCN(C[C@H]5C[C@H](N6CCC(c7ccc8c(c7)C(=O)N(C7CCC(=O)NC7=O)C8=O)CC6)C5)CC4)ncc3Cl)ccc2n(C(C)C)c1=O (stereo partly shown) [Compound 41, 2-[(6-{[5-chloro-2-(4-{[(1r,3r)-3-{4-[2-(2,6-dioxopiperidin-3-yl)-1,3-dioxo-2,3-dihydro-1H-isoindol-5-yl]piperidin-1-yl}cyclobutyl]methyl}piperazin-1-yl)pyrimidin-4-yl]amino}-2-oxo-1-(propan-2-yl)-1,2-dihydroquinolin-3-yl)oxy]-N-methylacetamide] | 50 to 100 nM | ≥ 70%
8 | CNC(=O)COc1cc2cc(Nc3nc(N4CCC(OC5CCC(N6CCC(c7ccc8c(c7)C(=O)N(C7CCC(=O)NC7=O)C8=O)CC6)C5)CC4)ncc3Cl)ccc2n(C(C)C)c1=O (stereo not shown) [Compound 42, 2-({6-[(5-chloro-2-{4-[(3-{4-[2-(2,6-dioxopiperidin-3-yl)-1,3-dioxo-2,3-dihydro-1H-isoindol-5-yl]piperidin-1-yl}cyclopentyl)oxy]piperidin-1-yl}pyrimidin-4-yl)amino]-2-oxo-1-(propan-2-yl)-1,2-dihydroquinolin-3-yl}oxy)-N-methylacetamide] | 10 to 50 nM | 50 to 70%
9 | CNC(=O)COc1cc2cc(Nc3nc(N4CCC(F)(CN5CCC6(CC5)CN(c5ccc7c(c5)C(=O)N(C5CCC(=O)NC5=O)C7=O)C6)CC4)ncc3Cl)ccc2n(C(C)C)c1=O (stereo not shown) [Compound 43, 2-{[6-({5-chloro-2-[4-({2-[2-(2,6-dioxopiperidin-3-yl)-1,3-dioxo-2,3-dihydro-1H-isoindol-5-yl]-2,7-diazaspiro [3.5]nonan-7-yl}methyl)-4-fluoropiperidin-1-yl]pyrimidin-4-yl}amino)-2-oxo-1-(propan-2-yl)-1,2-dihydroquinolin-3-yl]oxy}-N-methylacetamide] | 10 to 50 nM | 50 to 70%
10 | CNC(=O)COc1cc2cc(Nc3nc(N4CCC(F)(CN5CCC6(CC5)CN(c5cccc7c5C(=O)N(C5CCC(=O)NC5=O)C7=O)C6)CC4)ncc3Cl)ccc2n(C(C)C)c1=O (stereo not shown) [Compound 44, 2-{[6-({5-chloro-2-[4-({2-[2-(2,6-dioxopiperidin-3-yl)-1,3-dioxo-2,3-dihydro-1H-isoindol-4-yl]-2,7-diazaspiro [3.5]nonan-7-yl}methyl)-4-fluoropiperidin-1-yl]pyrimidin-4-yl}amino)-2-oxo-1-(propan-2-yl)-1,2-dihydroquinolin-3-yl]oxy}-N-methylacetamide] | < 10 nM | ≥ 70%
11 | CNC(=O)COc1cc2cc(Nc3nc(N4CCC(C(C)(C)N5CCC6(CC5)CN(c5ccc7c(c5)C(=O)N(C5CCC(=O)NC5=O)C7=O)C6)CC4)ncc3Cl)ccc2n(C(C)C)c1=O (stereo not shown) [Compound 45] | < 10 nM | 50 to 70%
12 | CNC(=O)COc1cc2cc(Nc3nc(N4CCC(C(C)(C)N5CCC6(CC5)CN(c5cccc7c5C(=O)N(C5CCC(=O)NC5=O)C7=O)C6)CC4)ncc3Cl)ccc2n(C(C)C)c1=O (stereo not shown) [Compound 46, 2-{[6-({5-chloro-2-[4-(2-{2-[2-(2,6-dioxopiperidin-3-yl)-1,3-dioxo-2,3-dihydro-1H-isoindol-4-yl]-2,7-diazaspiro [3.5]nonan-7-yl}propan-2-yl)piperidin-1-yl]pyrimidin-4-yl}amino)-2-oxo-1-(propan-2-yl)-1,2-dihydroquinolin-3-yl]oxy}-N-methylacetamide] | < 10 nM | ≥ 70%
13 | CNC(=O)COc1cc2cc(Nc3nc(N4CCC(C(=O)N5CCC6(CCN(c7ccc8c(c7)CN(C7CCC(=O)NC7=O)C8=O)C6)C5)CC4)ncc3Cl)ccc2n(C(C)C)c1=O (stereo not shown) [Compound 47, 2-[(6-{[5-chloro-2-(4-{7-[2-(2,6-dioxopiperidin-3-yl)-1-oxo-2,3-dihydro-1H-isoindol-5-yl]-2,7-diazaspiro[4.4]nonane-2-carbonyl}piperidin-1-yl)pyrimidin-4-yl]amino}-2-oxo-1-(propan-2-yl)-1,2-dihydroquinolin-3-yl)oxy]-N-methylacetamide] | < 10 nM | 50 to 70%
14 | CNC(=O)COc1cc2cc(Nc3nc(N4CCC(CN5CCC6(CCN(c7ccc8c(c7)CN(C7CCC(=O)NC7=O)C8=O)C6=O)C5)CC4)ncc3Cl)ccc2n(C(C)C)c1=O (stereo not shown) [Compound 48, 2-{[6-({5-chloro-2-[4-({7-[2-(2,6-dioxopiperidin-3-yl)-1-oxo-2,3-dihydro-1H-isoindol-5-yl]-6-oxo-2,7-diazaspiro[4.4]nonan-2-yl}methyl)piperidin-1-yl]pyrimidin-4-yl}amino)-2-oxo-1-(propan-2-yl)-1,2-dihydroquinolin-3-yl]oxy}-N-methylacetamide] | < 10 nM | 50 to 70%
15 | CNC(=O)COc1cc2cc(Nc3nc(N4CCC(OC5CCC6(CC5)CN(c5ccc7c(c5)CN(C5CCC(=O)NC5=O)C7=O)C6)CC4)ncc3Cl)ccc2n(C(C)C)c1=O (stereo not shown) [Compound 49, 2-{[6-({5-chloro-2-[4-({2-[2-(2,6-dioxopiperidin-3-yl)-1-oxo-2,3-dihydro-1H-isoindol-5-yl]-2-azaspiro[3.5]nonan-7-yl}oxy)piperidin-1-yl]pyrimidin-4-yl}amino)-2-oxo-1-(propan-2-yl)-1,2-dihydroquinolin-3-yl]oxy}-N-methylacetamide] | < 10 nM | 50 to 70%
16 | CNC(=O)COc1cc2cc(Nc3nc(N4CCC(CN5CCC6(CC5)CN(c5ccc7c(c5)C(=O)N(C5CCC(=O)NC5=O)C7=O)C6)CC4)ncc3Cl)ccc2n(C2CC2)c1=O (stereo not shown) [Compound 50, 2-{[6-({5-chloro-2-[4-({2-[2-(2,6-dioxopiperidin-3-yl)-1,3-dioxo-2,3-dihydro-1H-isoindol-5-yl]-2,7-diazaspiro[3.5]nonan-7-yl}methyl)piperidin-1-yl]pyrimidin-4-yl}amino)-1-cyclopropyl-2-oxo-1,2-dihydroquinolin-3-yl]oxy}-N-methylacetamide] | < 10 nM | 50 to 70%
17 | CNC(=O)COc1cc2cc(Nc3nc(N4CCC(F)(CN5CCC6(CC5)CN(c5ccc7c(c5)CN(C5CCC(=O)NC5=O)C7=O)C6)CC4)ncc3Cl)ccc2n(C(C)C)c1=O (stereo not shown) [Compound 51, 2-{[6-({5-chloro-2-[4-({2-[2-(2,6-dioxopiperidin-3-yl)-1-oxo-2,3-dihydro-1H-isoindol-5-yl]-2,7-diazaspiro[3.5]nonan-7-yl}methyl)-4-fluoropiperidin-1-yl]pyrimidin-4-yl}amino)-2-oxo-1-(propan-2-yl)-1,2-dihydroquinolin-3-yl]oxy}-N-methylacetamide] | < 10 nM | 50 to 70%

From patent US11986532B2 (Arvinas Operations, Inc., priority 2021, dated 2024)
